Read-outs that look alike come from different tables or passages of the source.
Biological target: T1, human recombinant PDE10A (Homo sapiens, UniProt Q9Y233)
T1 construct: made in house; host or cells: SF21 insect cells (baculovirus)
Assay: Inhibition of PDE10, human recombinant PDE10A ([3H]-cAMP SPA)
Assay type: biochemical
Method: The gene was than inserted into a baculovirus vector, ligated with the baculovirus DNA. The enzyme-protein was expressed in SF21-cells. The enzyme was isolated from these cells by harvesting the cells by a centrifugation at 200 g to collect the cells. The cells were resuspended in 50 mM Tris-HCl/5 mM MgCl2 buffer (pH=7.4) and lysed by a sonication of the cells. The cytosolic PDE10A was obtained by a centrifugation at 48000 g for 1 h in the supernatant and stored at −70° C. PDE10 activity was determined in a one step procedure in microtiterplates. […] Nonspecific activity was tested without the enzyme. The reaction was initiated by addition of the substrate solution and was carried out at 37° C. for 30 minutes. Enzymatic activity was stopped by addition of 25 μl YSi-SPA-beads (Amersham-Pharmacia). One hour later the mixture was measured in a liquid scintillation counter for microtiterplates (Microbeta Trilux). To pipette the incubation mixture a robot Biomek (Fa. Beckman) is used. […] For determination of IC50 values the Hill-plot, 2-parameter-model, was used.

[1] = Table 7, read-out: Human PDE10 (IC50 nM)

T1 sequence (Q9Y233 1-779 isoform Q9Y233-1): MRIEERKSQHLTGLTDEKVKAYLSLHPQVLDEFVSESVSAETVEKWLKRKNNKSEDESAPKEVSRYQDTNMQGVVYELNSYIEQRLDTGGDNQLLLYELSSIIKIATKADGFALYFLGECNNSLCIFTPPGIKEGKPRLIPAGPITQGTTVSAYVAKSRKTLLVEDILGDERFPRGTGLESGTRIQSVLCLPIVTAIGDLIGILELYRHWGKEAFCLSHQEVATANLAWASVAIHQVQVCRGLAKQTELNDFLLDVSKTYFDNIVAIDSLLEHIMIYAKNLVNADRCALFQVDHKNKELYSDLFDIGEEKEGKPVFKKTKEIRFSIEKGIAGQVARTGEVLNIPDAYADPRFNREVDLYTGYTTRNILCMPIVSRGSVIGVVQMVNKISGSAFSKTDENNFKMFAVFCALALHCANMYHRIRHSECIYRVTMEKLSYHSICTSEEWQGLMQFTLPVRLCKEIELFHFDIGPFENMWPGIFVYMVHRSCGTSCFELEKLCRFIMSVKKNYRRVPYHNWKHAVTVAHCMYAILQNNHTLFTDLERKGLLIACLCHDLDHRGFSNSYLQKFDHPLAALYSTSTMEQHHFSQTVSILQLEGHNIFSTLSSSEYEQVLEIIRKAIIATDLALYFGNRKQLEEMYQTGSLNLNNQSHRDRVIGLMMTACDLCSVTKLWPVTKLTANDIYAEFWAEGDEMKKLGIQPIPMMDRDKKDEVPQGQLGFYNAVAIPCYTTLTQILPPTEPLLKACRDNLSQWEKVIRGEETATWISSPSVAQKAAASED

Row | IC50 (Table 9, read-out: hPDE10 IC50) [nM] | Structure (SMILES) | further results
1 | > 100 | COc1ccc2nc(C#N)c3c(C)nc(-c4ccncc4)n3c2n1 [Example 170, 2-methoxy-7-methyl-9-pyridin-4-ylimidazo[1,5-a]pyrido[3,2-e]pyrazine-6-carbonitrile] | 
2 | < 10 | COc1ccc2nc(C)c3c(C)nc(-c4cccnc4F)n3c2n1 [Example 175, 9-(2-fluoropyridin-3-yl)-2-methoxy-6,7-dimethylimidazo[1,5-a]pyrido[3,2-e]pyrazine] | 
3 | < 10 | Cc1nc(-c2cc(F)cc(C(N)=O)c2)n2c1c(C)nc1ccc(OCC3CC3)nc12 [Example 145, 3-[2-(cyclopropylmethoxy)-6,7-dimethylimidazo[1,5-a]pyrido[3,2-e]pyrazin-9-yl]-5-fluorobenzamide] | 
4 | 10 to 100 | COc1ccc2nc(C#N)c3c(C)nc(-c4cccnc4)n3c2n1 [Example 171, 2-methoxy-7-methyl-9-pyridin-3-ylimidazo[1,5-a]pyrido[3,2-e]pyrazine-6-carbonitrile] | 
5 |  | COc1ccc2nc(C)c3c(C)nc(-c4ccc(Cl)cc4F)n3c2n1 [Example 17, 9-(4-Chloro-2-fluorophenyl)-2-methoxy-6,7-dimethylimidazo[1,5-a]pyrido[3,2-e]pyrazine] | IC50 [1]: 10 to 100 nM
6 | < 10 | Cc1nc(-c2ccc(C(N)=O)cc2)n2c1c(C)nc1ccc(OCC3CC3)nc12 [Example 142, 4-[2-(cyclopropylmethoxy)-6,7-dimethylimidazo[1,5-a]pyrido[3,2-e]pyrazin-9-yl]benzamide] | 
7 | > 100 | COc1ccc2nc(C)c3c(C)nc(-c4ccc(N5CCOCC5)nc4)n3c2n1 [Example 187, 2-methoxy-6,7-dimethyl-9-(6-morpholin-4-ylpyridin-3-yl)imidazo[1,5-a]pyrido[3,2-e]pyrazine] | 
8 | 10 to 100 | COc1ccc2nc(C)c3c(C)nc(-c4cnn(C)c4)n3c2n1 [Example 180, 2-methoxy-6,7-dimethyl-9-(1-methyl-1H-pyrazol-4-yl)imidazo[1,5-a]pyrido[3,2-e]pyrazine] | 
9 | > 100 | COc1ccc(-c2nc(C)c3c(C)nc4ccc(OCC5CC5)nc4n23)cn1 [Example 139, 2-(cyclopropylmethoxy)-9-(6-methoxypyridin-3-yl)-6,7-dimethylimidazo[1,5-a]pyrido[3,2-e]pyrazine] | 
10 | < 10 | COc1ccc2nc(C)c3c(C)nc(-c4cc(F)cc(C(N)=O)c4)n3c2n1 [Example 129, 3-fluoro-5-(2-methoxy-6,7-dimethylimidazo[1,5-a]pyrido[3,2-e]pyrazin-9-yl)benzamide] | 
11 | < 10 | Cc1c(F)cccc1-c1nc(C)c2c(C)nc3ccc(OCC4CC4)nc3n12 [Example 136, 2-(cyclopropylmethoxy)-9-(3-fluoro-2-methylphenyl)-6,7-dimethylimidazo[1,5-a]pyrido[3,2-e]pyrazine] | 
12 | < 10 | Cc1ccccc1-c1nc(C)c2c(C)nc3ccc(OCCF)nc3n12 [Example 154, 2-(2-fluoroethoxy)-6,7-dimethyl-9-(2-methylphenyl)imidazo[1,5-a]pyrido[3,2-e]pyrazine] | 
13 |  | COc1ccc2nc(C)c3c(C)nc(-c4cnc(F)c(C)c4)n3c2n1 [Example 33, 9-(6-Fluoro-5-methylpyridin-3-yl)-2-methoxy-6,7-dimethylimidazo[1,5-a]pyrido[3,2-e]pyrazine] | IC50 [1]: 10 to 100 nM
14 | < 10 | COc1ccc2nc(C)c3c(C)nc(-c4ccc5[nH]ccc5c4)n3c2n1 [Example 177, 9-(1H-indol-5-yl)-2-methoxy-6,7-dimethylimidazo[1,5-a]pyrido[3,2-e]pyrazine] | 
15 | 10 to 100 | Cc1ccccc1-c1nc(C)c2c(C)nc3ccc(OCc4ccc(F)cc4)nc3n12 [Example 157, 2-[(4-fluorobenzyl)oxy]-6,7-dimethyl-9-(2-methylphenyl)imidazo[1,5-a]pyrido[3,2-e]pyrazine] | 
16 | 10 to 100 | COc1ccc2nc(C#N)c3c(C)nc(-c4cccc(C(N)=O)c4)n3c2n1 [Example 167, 3-(6-cyano-2-methoxy-7-methylimidazo[1,5-a]pyrido[3,2-e]pyrazin-9-yl)benzamide] | 
17 | 10 to 100 | Cc1cc(F)ccc1-c1nc(C)c2c(C)nc3ccc(OCC4CC4)nc3n12 [Example 135, 2-(cyclopropylmethoxy)-9-(4-fluoro-2-methylphenyl)-6,7-dimethylimidazo[1,5-a]pyrido[3,2-e]pyrazine] | 
18 | > 100 | COc1ccc2nc(C#N)c3c(C)nc(-c4cnccc4C)n3c2n1 [Example 169, 2-methoxy-7-methyl-9-(4-methylpyridin-3-yl)imidazo[1,5-a]pyrido[3,2-e]pyrazine-6-carbonitrile] | 
19 |  | CCCc1nc(C)c2c(C)nc3ccc(=O)[nH]c3n12 [Example 46, 6,7-Dimethyl-9-propylimidazo[1,5-a]pyrido[3,2-e]pyrazin-2(1H)-one] | IC50 (Table 8, cell marked Human PDE10, read-out: IC50 (nM) (Human PDE10)): > 100 nM

Row | IC50 (Table 9, read-out: hPDE10 IC50) [nM] | Structure (SMILES) | further results
20 | 10 to 100 | Cc1ccccc1-c1nc(C)c2c(C)nc3ccc(=O)[nH]c3n12 [Example 152, 6,7-Dimethyl-9-o-tolylimidazo[1,5-a]pyrido[3,2-e]pyrazin-2(1H)-one] | 
21 | < 10 | COc1cncc(-c2nc(C)c3c(C)nc4ccc(OC)nc4n23)c1 [Example 184, 2-methoxy-9-(5-methoxypyridin-3-yl)-6,7-dimethylimidazo[1,5-a]pyrido[3,2-e]pyrazine] | 
22 | > 100 | COc1ccc2nc(C)c3c(C)nc(CC#N)n3c2n1 [Example 133, (2-Methoxy-6,7-dimethylimidazo[1,5-a]pyrido[3,2-e]pyrazin-9-yl)acetonitrile] | 
23 | < 10 | Cc1nc(-c2cccc(C(N)=O)c2)n2c1c(C)nc1ccc(OCC3CC3)nc12 [Example 143, 3-[2-(cyclopropylmethoxy)-6,7-dimethylimidazo[1,5-a]pyrido[3,2-e]pyrazin-9-yl]benzamide] | 
24 | > 100 | Cc1nc(-c2cccc(S(N)(=O)=O)c2)n2c1c(C)nc1ccc(OCC3CC3)nc12 [Example 148, 3-[2-(cyclopropylmethoxy)-6,7-dimethylimidazo[1,5-a]pyrido[3,2-e]pyrazin-9-yl]benzenesulfonamide] | 
25 | > 100 | CCCn1cc(-c2nc(C)c3c(C)nc4ccc(OC)nc4n23)cn1 [Example 189, 2-methoxy-6,7-dimethyl-9-(1-propyl-1H-pyrazol-4-yl)imidazo[1,5-a]pyrido[3,2-e]pyrazine] | 
26 | < 10 | Cc1nc(F)ccc1-c1nc(C)c2c(C)nc3ccc(OCC4CC4)nc3n12 [Example 141, 2-(cyclopropylmethoxy)-9-(6-fluoro-2-methylpyridin-3-yl)-6,7-dimethylimidazo[1,5-a]pyrido[3,2-e]pyrazine] | 
27 | 10 to 100 | Cc1ccncc1-c1nc(C)c2c(C)nc3ccc(OCC4CC4)nc3n12 [Example 140, 2-(cyclopropylmethoxy)-6,7-dimethyl-9-(4-methylpyridin-3-yl)imidazo[1,5-a]pyrido[3,2-e]pyrazine] | 
28 | < 10 | Cc1nc(-c2ccc(F)c(C(N)=O)c2)n2c1c(C)nc1ccc(OCC3CC3)nc12 [Example 144, 5-(2-(cyclopropylmethoxy)-6,7-dimethylimidazo[1,5-a]pyrido[3,2-e]pyrazin-9-yl)-2-fluorobenzamide] | 
29 | < 10 | Cc1cc(C(N)=O)ccc1-c1nc(C)c2c(C)nc3ccc(OCC4CC4)nc3n12 [Example 150, 4-[2-(cyclopropylmethoxy)-6,7-dimethylimidazo[1,5-a]pyrido[3,2-e]pyrazin-9-yl]-3-methylbenzamide] | 
30 | < 10 | COc1ccc2nc(C#N)c3c(C)nc(-c4ccc(F)c(C(N)=O)c4)n3c2n1 [Example 168, 5-(6-cyano-2-methoxy-7-methylimidazo[1,5-a]pyrido[3,2-e]pyrazin-9-yl)-2-fluorobenzamide] | 
31 | 10 to 100 | Cc1ccccc1-c1nc(C)c2c(C)nc3ccc(OCC(F)(F)F)nc3n12 [Example 155] | 
32 | < 10 | Cc1nc(-c2ccc(F)cc2Cl)n2c1c(C)nc1ccc(OCC3CC3)nc12 [Example 138, 9-(2-chloro-4-fluorophenyl)-2-(cyclopropylmethoxy)-6,7-dimethylimidazo[1,5-a]pyrido[3,2-e]pyrazine] | 
33 |  | COc1ccc2nc(C)c3c(C(F)(F)F)nc(-c4cnccc4OC)n3c2n1 [Example 34, 2-Methoxy-9-(4-methoxypyridin-3-yl)-6-methyl-7-(trifluoromethyl)imidazo[1,5-a]pyrido[3,2-e]pyrazine] | IC50 [1]: > 100 nM
34 |  | COc1ccc2nc(N)c3c(C(F)(F)F)nc(-c4ccccc4C)n3c2n1 [Example 38, 2-Methoxy-9-(2-methylphenyl)-7-(trifluoromethyl)imidazo[1,5-a]pyrido[3,2-e]pyrazin-6-amine] | IC50 [1]: 10 to 100 nM
35 | > 100 | Cc1ccncc1-c1nc(C)c2c(C)nc3ccc(=O)[nH]c3n12 [Example 159, 6,7-Dimethyl-9-(4-methylpyridin-3-yl)imidazo[1,5-a]pyrido[3,2-e]pyrazin-2(H)-one] | 
36 | > 100 | Cc1cc(C(=O)O)ccc1-c1nc(C)c2c(C)nc3ccc(OCC4CC4)nc3n12 [Example 147, 4-[2-(cyclopropylmethoxy)-6,7-dimethylimidazo[1,5-a]pyrido[3,2-e]pyrazin-9-yl]-3-methylbenzoic acid] | 
37 | < 10 | Cc1ccccc1-c1nc(C)c2c(C)nc3ccc(OCC(F)F)nc3n12 [Example 153, 2-(2,2-difluoroethoxy)-6,7-dimethyl-9-(2-methylphenyl)imidazo[1,5-a]pyrido[3,2-e]pyrazine] | 
38 | 10 to 100 | COc1ccc2nc(C)c3c(C)nc(-c4ccc(Cl)c(C(N)=O)c4)n3c2n1 [Example 131, 2-chloro-5-(2-methoxy-6,7-dimethylimidazo[1,5-a]pyrido[3,2-e]pyrazin-9-yl)benzamide] | 
